In US6573279B1, “Isoquinoline derivatives or salts thereof” (priority 1999, dated 2003) one finds melting point data, which are given here for 41 compounds.

Where a name gives a salt, the structure may show the parent alone.

The compound `COc1cc2c(cc1OC)CN(C(=O)C1CCCN(CCC(=O)Nc3cccc(Cl)c3)C1)CC2` (centres unmarked) (as salt: HCl) [Example 12] showed a melting point of 181 to 185 °C.
`COc1cc2c(cc1OC)CN(C(=O)C1CCCN(CCC(=O)Nc3ccc(OC)c(C(F)(F)F)c3)C1)CC2` (centres unmarked) (as salt: HCl) [Example 13] had a melting point of 166 to 168 °C.
With `COc1cc2c(cc1OC)CN(C(=O)C1CCCN(CCC(=O)Nc3ccc4ncsc4c3)C1)CC2` (centres unmarked) (as salt: HCl) [Example 14], the melting point lay within 183 to 185 °C.
Under `COc1cc(NC(=O)CCN2CCCC(C(=O)N3CCc4cc(OC)c(OC)cc4C3)C2)ccc1C` (centres unmarked) (as salt: HCl) [Example 15] stands 171 to 173 °C.
Under `COc1cc2c(cc1OC)CN(C(=O)C1CCCN(CCC(=O)Nc3ccc(C)c(F)c3)C1)CC2` (centres unmarked) (as salt: HCl) [Example 16] stands 183 to 185 °C; under `COc1cc2c(cc1OC)CN(C(=O)C1CCN(CCC(=O)Nc3ccc4c(c3)OCO4)CC1)CC2` (as salt: HCl) [Example 19], 203 to 206 °C.
In turn, `COc1cc2c(cc1OC)C(C)(C)CN(C(=O)C1CCCN(CCC(=O)Nc3ccc4c(c3)OCO4)C1)C2` (centres unmarked) (as salt: HCl) [Example 25] registered a melting point of 225 to 228 °C.
Under `COc1cc2c(cc1OC)CN(C(=O)[C@@H]1CCCN(CCNC(=O)c3ccc(F)cc3)C1)CC2` (as salt: salt) (hydrate or solvate) [Example 49] stands 197 to 199 °C.
`COc1cc2c(cc1OC)CN(C(=O)[C@H]1CCCN(CCNC(=O)c3ccc(F)cc3)C1)CC2` (as salt: salt) (hydrate or solvate) [Example 50] returned a melting point of 187 to 191 °C.
As for `COc1ccc2c(c1)CCN(C(=O)C1CCCN(CCC(=O)Nc3ccc4c(c3)OCO4)C1)C2` (centres unmarked) (as salt: salt) [Example 17], the melting point was 179 to 180 °C.
As for `O=C(CCN1CCCC(C(=O)N2CCc3ccccc3C2)C1)Nc1ccc2c(c1)OCO2` (centres unmarked) (as salt: salt) [Example 18], the melting point fell in the range of 195 to 196 °C.
As for `COc1cc2c(cc1OC)CN(C(=O)C1CCCN(CCC(=O)Nc3ccc4c(c3)OCO4)C1)CCC2` (centres unmarked) (as salt: salt) [Example 20], the melting point lay within 180 to 181 °C.
As for `COc1ccc(NC(=O)CCN2CCCC(C(=O)N3CCc4cc(OC)c(OC)cc4C3)C2)cn1` (centres unmarked) (as salt: salt) [Example 21], the melting point lay in the range of 182 to 185 °C.
For the compound `COc1ccc(C(=O)NCCN2CCCC(C(=O)N3CCc4cc(OC)c(OC)cc4C3)C2)cc1C` (centres unmarked) (as salt: salt) [Example 26], the melting point fell in the range of 114 to 117 °C.
`COc1ccc(C(=O)NCCN2CCCC(C(=O)N3CCc4cc(OC)c(OC)cc4C3)C2)cc1F` (centres unmarked) (as salt: salt) [Example 27] gave a melting point of 113 to 116 °C.
`COc1cc(C(=O)NCCN2CCCC(C(=O)N3CCc4cc(OC)c(OC)cc4C3)C2)ccc1C` (centres unmarked) (as salt: salt) [Example 28]: the melting point was in the range of 125 to 128 °C.
Compound `COc1cc2c(cc1OC)CN(C(=O)C1CCCN(CCNC(=O)c3ccc(F)c(F)c3)C1)CC2` (centres unmarked) (as salt: salt) [Example 29] registered a melting point of 120 to 124 °C.
In the case of `COc1cc2c(cc1OC)CN(C(=O)C1CCCN(CCNC(=O)c3ccc4c(c3)OCCO4)C1)CC2` (centres unmarked) (as salt: salt) [Example 30] it was 126 to 130 °C; in that of `COc1cc2c(cc1OC)CN(C(=O)C1CCCN(CCNC(=O)c3ccc4c(c3)OC(F)(F)O4)C1)CC2` (centres unmarked) (as salt: salt) [Example 31], 113 to 116 °C; in that of `CCOc1ccc(C(=O)NCCN2CCCC(C(=O)N3CCc4cc(OC)c(OC)cc4C3)C2)cc1` (centres unmarked) (as salt: salt) [Example 32], 125 to 127 °C.
For `COc1cc2c(cc1OC)CN(C(=O)C1CCCN(CCNC(=O)c3ccc(OC(C)C)cc3)C1)CC2` (centres unmarked) (as salt: salt) [Example 33], the melting point is 116 to 119 °C.
`COc1cc2c(cc1OC)CN(C(=O)C1CCCN(CCNC(=O)c3ccc4c(c3)OCC(=O)N4C)C1)CC2` (centres unmarked) (as salt: salt) [Example 34] displayed a melting point of 130 to 138 °C.
As to `COc1cc2c(cc1OC)CN(C(=O)C1CCCN(CCNC(=O)c3ccc4c(c3)N(C)C(=O)CO4)C1)CC2` (centres unmarked) (as salt: salt) [Example 35], the melting point was 124 to 133 °C.
Compound `COc1cc2c(cc1OC)CN(C(=O)C1CCCN(CCNC(=O)c3ccc(F)cc3)C1)CC2` (centres unmarked) (as salt: salt) [Example 40] came in with a melting point of 137 to 141 °C.
In turn, `COc1cc2c(cc1OC)CN(C(=O)C1CCCN(CCNC(=O)c3cccc(Br)c3)C1)CC2` (centres unmarked) (as salt: salt) [Example 41] gave a melting point of 133 to 136 °C.
In the case of `COc1cc(OC)cc(C(=O)NCCN2CCCC(C(=O)N3CCc4cc(OC)c(OC)cc4C3)C2)c1` (centres unmarked) (as salt: salt) [Example 42], the melting point was in the range of 166 to 167 °C.
Take `COc1cc2c(cc1OC)CN(C(=O)C1CCCN(CCNC(=O)c3ccc(F)cc3F)C1)CC2` (centres unmarked) (as salt: salt) [Example 43]: the melting point lay within 178 to 180 °C.
Compound `COc1cc2c(cc1OC)CN(C(=O)C1CCCN(CCNC(=O)c3ccc(F)c(C(F)(F)F)c3)C1)CC2` (centres unmarked) (as salt: salt) [Example 44] came in with a melting point of 186 to 188 °C.
Consider `COc1cc2c(cc1OC)CN(C(=O)C1CCCN(CCNC(=O)c3ccc(F)c(Cl)c3)C1)CC2` (centres unmarked) (as salt: salt) [Example 45], for which the melting point was 111 to 112 °C.
With `COc1cc2c(cc1OC)C(C)(C)CN(C(=O)C1CCCN(CCNC(=O)c3ccc4c(c3)OCO4)C1)C2` (centres unmarked) (as salt: salt) [Example 51], the melting point lay in the range of 138 to 140 °C.
Under `COc1cc2c(cc1OC)CN(C(=O)[C@@H]1CCCN(CCC(=O)Nc3ccc4c(c3)OCO4)C1)CC2` (as salt: tartrate) [Example 5, (−)-3-[(R)-3-(6,7-dimethoxy-1,2,3,4-tetrahydroisoquinoline-2-carbonyl)piperidino]-N-(3,4-methylenedioxyphenyl)propanamide L-tartrate] stands 174 to 175 °C.
Turning to `COc1cc2c(cc1OC)CN(C(=O)[C@H]1CCCN(CCC(=O)Nc3ccc4c(c3)OCO4)C1)CC2` (as salt: tartrate) [Example 6, (+)-3-[(S)-3-(6,7-dimethoxy-1,2,3,4-tetrahydroisoquinoline-2-carbonyl)piperidino]-N-(3,4-methylenedioxyphenyl)propanamide D-tartrate], the melting point was in the range of 175 to 177 °C.
The compound `COc1ccc(NC(=O)CCN2CCCC(C(=O)N3CCc4cc(OC)c(OC)cc4C3)C2)cc1OC` (racemic) (as salt: HCl) [Example 1, (±)-3-[3-(6,7-dimethoxy-1,2,3,4-tetrahydroisoquinoline-2-carbonyl)piperidino]-N-(3,4-dimethoxyphenyl)propanamide hydrochloride] showed a melting point of 154 to 156 °C.
With `COc1cc2c(cc1OC)CN(C(=O)C1CCCN(CCC(=O)Nc3ccc4c(c3)OCO4)C1)CC2` (racemic) (as salt: HCl) [Example 2, (±)-3-[3-(6,7-dimethoxy-1,2,3,4-tetrahydroisoquinoline-2-carbonyl)piperidino]-N-(3,4-methylenedioxyphenyl)propanamide hydrochloride], the melting point was in the range of 226 to 228 °C.
`COc1ccc(NC(=O)CCN2CCCC(C(=O)N3CCc4cc(OC)c(OC)cc4C3)C2)cc1` (racemic) (as salt: HCl) [Example 4, (±)-3-[3-(6,7-dimethoxy-1,2,3,4-tetrahydroisoquinoline-2-carbonyl)piperidino]-N-(4-methoxyphenyl)propanamide hydrochloride]: the melting point was in the range of 211 to 213 °C.
On to `COc1cc2c(cc1OC)CN(C(=O)C1CCCN(CCNC(=O)c3ccc4c(c3)OCO4)C1)CC2` (racemic) (as salt: HCl) [Example 9, (±)-N-{2-[3-(6,7-dimethoxy-1,2,3,4-tetrahydrolsoquinoline-2-carbonyl)piperidino]ethyl}-3,4-methylenedioxybenzamide hydrochloride], for which the melting point is 182 to 185 °C.
On to `COc1ccc(C(=O)NCCN2CCCC(C(=O)N3CCc4cc(OC)c(OC)cc4C3)C2)cc1OC` (racemic) (as salt: HCl) [Example 11, (±)-N-{2-[3-(6,7-dimethoxy-1,2,3,4-tetrahydroisoquinoline-2-carbonyl)-piperidino]ethyl}-3,4-dimethoxybenzamide hydrochloride], for which the melting point fell in the range of 199 to 202 °C.
On to `COc1cc2c(cc1OC)CN(C(=O)[C@H]1CCCN(CCC(=O)Nc3ccc4c(c3)OCO4)C1)CC2` (racemic) (as salt: fumarate) (hydrate or solvate) [Example 53, (±)-3-[(S)-3-(6,7-dimethoxy-1,2,3,4-tetrahydroisoquinoline-2-carbonyl)piperidino]-N-(3,4-methylenedioxyphenyl)propanamide fumarate], for which the melting point is 164 to 166 °C.
With `COc1cc(NC(=O)CCN2CCCC(C(=O)N3CCc4cc(OC)c(OC)cc4C3)C2)cc(OC)c1` (racemic) (as salt: oxalate) [Example 3, (±)-3-[3-(6,7-dimethoxy-1,2,3,4-tetrahydroisoquinoline-2-carbonyl)piperidino]-N-(3,5-dimethoxyphenyl)propanamide 1/2 oxalate], the melting point was in the range of 187 to 192 °C.
In the case of `COc1cc2c(cc1OC)CN(C(=O)C1CCCN(CCCC(=O)Nc3ccc4c(c3)OCO4)C1)CC2` (racemic) (as salt: oxalate) [Example 7, (±)-4-[3-(6,7-dimethoxy-1,2,3,4-tetrahydroisoquinoline-2-carbonoyl)piperidino]-N-(3,4-methylenedioxyphenyl)butanamide oxalate], the melting point is 113 to 116 °C.
`COc1cc2c(cc1OC)CN(C(=O)C1CCCN(CC(=O)Nc3ccc4c(c3)OCO4)C1)CC2` (racemic) (as salt: oxalate) [Example 8, (±)-2-[3-(6,7-dimethoxy-1,2,3,4-tetrahydroisoquinoline-2-carbonyl)piperidino]-N-(3,4-methylenedioxyphenyl)ethanamide oxalate]: the melting point was in the range of 157 to 159 °C.

What is called melting point is the temperature, or range, at which the solid turns liquid.
